Where “and” joins values, the source holds several entries; their conditions need not be identical. Equal values may be shown once.
Legend:
[1] = Half life at a pH of 3.0.; type: ADME; conditions: pH 3
[2] = system: L1210; assay: Compound was tested in vitro for cytotoxic potency against L1210 leukemia.; type: functional, cell-based; conditions: Mus musculus
[3] = Aqueous solvolysis, K value at a pH of 3.0.; type: ADME; conditions: buffer, pH 3
[4] = Kinetic constant at 0.1 equivalent H+ and 20 equivalent CH3OH.; type: ADME
[5] = Half life at 0.25 equivalent H+ and 100 equivalent CH3OH.; type: ADME
[6] = Kinetic constant at 0.1 equivalent H+ and 500 equivalent CH3OH.; type: ADME
[7] = Half life at 0.1 equivalent H+ and 20 equivalent CH3OH.; type: ADME
[8] = Aqueous solvolysis, K value at a pH of 2.0.; type: ADME; conditions: buffer, pH 2
[9] = Half life at a pH of 2.0.; type: ADME; conditions: pH 2
[10] = Half life at 0.1 equivalent H+ and 500 equivalent CH3OH.; type: ADME
[11] = Kinetic constant at 0.1 equivalent H+ and 100 equivalent CH3OH.; type: ADME
[12] = Kinetic constant at 0.25 equivalent H+ and 100 equivalent CH3OH.; type: ADME

SMILES | half-life [1] | k [3] | IC50 [2] | also measured
COC(=O)N1C[C@H]2C[C@@]23C1=CC(=O)c1ccccc13 | 57 h | 3.4e-06 s⁻¹ | 140 nM | –
COC(=O)c1cc2c([nH]1)C(=O)C=C1N(C(=O)OC(C)(C)C)C[C@H]3C[C@]123 | – | 1.08e-06 s⁻¹ | – | –
Cc1c[nH]c2c1[C@@]13C[C@@H]1CN(C(=O)OC(C)(C)C)C3=CC2=O | – | 5.26e-06 s⁻¹ | – | –
CC(C)(C)OC(=O)N1C[C@H]2C[C@@]23C1=CC(=O)c1ccc(C#N)cc13 | 213 h | 9e-07 s⁻¹ | 20 nM | k [4]: 0.2 s⁻¹; half-life [5]: 0.26 h; k [6]: 5.6 s⁻¹; half-life [7]: 9.2 h; k [8]: 7.9e-06 s⁻¹; half-life [9]: 24.2 h; T1/2 [10]: 0.92 h and 0.34 h; k [11]: 2.1 s⁻¹; k [12]: 7.4 s⁻¹
COC(=O)[C@]1(C)N=C2C(=O)C=C3N(C(=O)OC(C)(C)C)C[C@H]4C[C@@]34C2=C1O | – | 1.75e-06 s⁻¹ | 1000 nM | –
COc1ccc2c(c1)[C@@]13C[C@@H]1CN(C(=O)OC(C)(C)C)C3=CC2=O | 110 h | 1.75e-06 s⁻¹ | 90 nM | k [8]: 1.62e-05 s⁻¹; half-life [9]: 11.8 h

The next lines start with results.

half-life [1] | k [3] | SMILES | IC50 [2] | also measured
36 h | 5.3e-06 s⁻¹ | CNC(=O)N1C[C@H]2C[C@@]23C1=CC(=O)c1ccccc13 | 200 nM | –
0.01 h | 1.98e-06 s⁻¹ | CC(C)(C)OC(=O)N1C[C@H]2C[C@]23C=CC(=O)C=C13 | 18000 nM | –
383 h | 5e-07 s⁻¹ | CCS(=O)(=O)N1C[C@H]2C[C@@]23C1=CC(=O)c1ccccc13 | 24 nM | –
2.1 h | 9.07e-06 s⁻¹ | CC(C)(C)OC(=O)N1CC[C@H]2C[C@@]23C1=CC(=O)c1ccccc13 | 2000 nM | –
96 h | 2e-06 s⁻¹ | CCC(=O)N1C[C@H]2C[C@@]23C1=CC(=O)c1ccccc13 | 110 nM | –
133 h | 1.45e-06 s⁻¹ | CC(C)(C)OC(=O)N1C[C@H]2C[C@@]23C1=CC(=O)c1ccccc13 | 80 nM | k [8]: 1.53e-05 s⁻¹

Reference: ChEMBL document CHEMBL1150513, “A Hammett correlation for CC-1065 and duocarmycin analogs: Magnitude of substituent electronic effects on functional reactivity” (Bioorg Med Chem Lett, 1996)
